Laboratory results: US10399948B2, “Negative allosteric modulators of metabotropic glutamate receptor 3” (Vanderbilt University, priority 2015, dated 2019)
pEC50, pIC50: −log10 of the molar value. Where two headings read alike, the source gives them in different places.

Key:
[1] = test system: group II mGlu receptors (mGlu2 and mGlu3); details: cited from earlier work
[2] = biological target: rat mGlu2 (Rattus norvegicus (Rat), UniProt P31421); test: mGlu2 Ca2+ flux assay; assay type: cell-based; details: NAM, glutamate EC80; >30,000 = no measurable activity
[3] = biological target: rat mGlu5 (Rattus norvegicus (Rat), UniProt P31424); test: mGlu5 Ca2+ flux assay; assay type: cell-based; details: PAM; for pEC50: glutamate EC20, >10,000 = no plateau, >30,000 = no measurable activity, read-out: rat mGlu5 EC50 or IC50; for activity at 30 µM: response at 30 μM test compound as percentage of maximal response to glutamate, read-out: rat mGlu5 Glu max (%)
Procedure: HEK 293A cells stably expressing rat mGlu5 were plated in black-walled, clear-bottomed, poly-D-lysine coated 384-well plates in 20 μL of assay medium (DMEM containing 10% dialyzed FBS, 20 mM HEPES, 100 units/mL penicillin/streptomycin plus 250 ng/mL Fungizone, and 1 mM sodium pyruvate) at a density of 20K cells/well. The cells were grown overnight at 37° C. in the presence of 5% CO2. The next day, medium was removed and the cells incubated with 20 μL of […] Fluo-4, AM prepared as a 2.3 mM stock in DMSO and mixed in a 1:1 ratio with 10% (w/v) pluronic acid F-127 and diluted in assay buffer (Hank's balanced salt solution, 20 mM HEPES, and 2.5 mM probenecid) for 45 minutes at 37° C. Dye was removed, 20 μL of assay buffer was added, and the plate was incubated for 5 minutes at room temperature.
Ca^2+ flux was measured using the Functional Drug Screening System (FDSS7000, Hamamatsu, Japan). After establishment of a fluorescence baseline for about 3 seconds, the compounds of the present invention were added to the cells, and the response in cells was measured. 2.3 minutes later an EC20 concentration of the mGlu5 receptor agonist glutamate was added to the cells, and the response of the cells was measured for 1.9 minutes; an EC80 concentration of agonist was added and readings taken for an additional 1.7 minutes. All test compounds were dissolved and diluted to a concentration of 10 mM in 100% DMSO. Compounds were then serially diluted 1:3 in DMSO into 10 point concentration response curves, transferred to daughter plates, and further diluted into assay buffer to a 2× stock. Calcium fluorescence measures were recorded as fold over basal fluorescence; raw data was then normalized to the maximal response to glutamate.
The raw data file containing all time points was used as the data source in the analysis template. This was saved by the FDSS as a tab-delimited text file. Data were normalized using a static ratio function (F/F0) for each measurement of the total 360 values per well divided by each well's initial value. Data were then reduced to peak amplitudes (Max−Initial Min) using a time range that starts approximately 3 seconds prior to the glutamate EC20/EC80 addition and continues for approximately 90-120 seconds. This is sufficient time to capture the peak amplitude of the cellular calcium response. Individual amplitudes were expressed as % EMax by multiplying each amplitude by 100 and then dividing the product by the mean of the amplitudes derived from the glutamate ECMax-treated wells. EC50 values for test compounds were generated by fitting the normalized values versus the log of the test compound concentration (in mol/L) using a 4 parameter logistic equation where none of the parameters were fixed. Each of the three values collected at each concentration of test compound were weighted evenly.

[4] = biological target: rat mGlu3 (Rattus norvegicus (Rat), UniProt P31422); test: mGlu3 Ca2+ flux assay; assay type: cell-based; details: for pIC50: NAM, glutamate EC80, >10,000 = decrease without plateau, >30,000 = no measurable activity; for remaining activity at 30 µM: response at 30 μM test compound as percentage of maximal response to glutamate, read-out: rat mGlu3 Glu max (%)
[5] = test system: mice; details: cited from earlier work
[6] = test system: rat; details: normal animals; cited from earlier work
[7] = test system: glioma stem cells (GSC) tumors; details: compared with controls; cited from earlier work
[8] = test system: Helpless (H) mice; details: cited from earlier work; for activity in the tail suspension test: Helpless (H) mice
[9] = test system: C57Bl6/J mice; details: FST; cited from earlier work
[10] = test system: glioma stem cells (GSC); details: in vitro; cited from earlier work
[11] = test system: mouse; details: normal animals; cited from earlier work
[12] = test system: Aβ-induced neurodegeneration; details: cited from earlier work
[13] = test system: central mGlu2 and mGlu3 receptors; details: in vivo; cited from earlier work
[14] = test system: schizophrenic patients; details: compared to placebo, P<0.001 at week 4; cited from earlier work
[15] = cited from earlier work
[16] = test system: olfactory bulbectomized rats; details: repeated administration for 14 days; cited from earlier work
[17] = in vivo; cited from earlier work
[18] = test system: social isolation-reared mice; details: cited from earlier work

Chain of rat mGlu3 (P31422 23-879): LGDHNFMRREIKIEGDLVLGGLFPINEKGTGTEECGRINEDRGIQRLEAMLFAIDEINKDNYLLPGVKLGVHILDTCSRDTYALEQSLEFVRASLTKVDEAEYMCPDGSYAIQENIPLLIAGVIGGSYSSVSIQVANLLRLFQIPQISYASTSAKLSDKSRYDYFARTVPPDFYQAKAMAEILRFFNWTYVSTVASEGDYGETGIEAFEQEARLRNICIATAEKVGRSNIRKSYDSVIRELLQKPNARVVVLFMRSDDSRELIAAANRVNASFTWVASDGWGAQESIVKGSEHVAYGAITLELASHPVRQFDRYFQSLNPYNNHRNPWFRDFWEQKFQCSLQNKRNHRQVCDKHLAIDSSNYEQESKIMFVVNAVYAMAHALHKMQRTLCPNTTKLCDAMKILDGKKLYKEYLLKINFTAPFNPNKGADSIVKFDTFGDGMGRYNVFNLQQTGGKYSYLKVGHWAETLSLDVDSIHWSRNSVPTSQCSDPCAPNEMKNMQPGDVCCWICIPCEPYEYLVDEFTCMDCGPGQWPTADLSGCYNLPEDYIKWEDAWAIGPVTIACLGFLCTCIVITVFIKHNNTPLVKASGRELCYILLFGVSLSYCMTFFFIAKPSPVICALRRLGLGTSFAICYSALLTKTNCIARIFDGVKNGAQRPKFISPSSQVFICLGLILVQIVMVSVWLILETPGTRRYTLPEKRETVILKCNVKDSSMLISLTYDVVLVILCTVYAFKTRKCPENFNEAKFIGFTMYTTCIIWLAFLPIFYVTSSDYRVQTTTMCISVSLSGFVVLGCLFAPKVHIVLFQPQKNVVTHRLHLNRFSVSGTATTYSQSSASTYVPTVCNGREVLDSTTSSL
Chain of rat mGlu2 (P31421 19-872): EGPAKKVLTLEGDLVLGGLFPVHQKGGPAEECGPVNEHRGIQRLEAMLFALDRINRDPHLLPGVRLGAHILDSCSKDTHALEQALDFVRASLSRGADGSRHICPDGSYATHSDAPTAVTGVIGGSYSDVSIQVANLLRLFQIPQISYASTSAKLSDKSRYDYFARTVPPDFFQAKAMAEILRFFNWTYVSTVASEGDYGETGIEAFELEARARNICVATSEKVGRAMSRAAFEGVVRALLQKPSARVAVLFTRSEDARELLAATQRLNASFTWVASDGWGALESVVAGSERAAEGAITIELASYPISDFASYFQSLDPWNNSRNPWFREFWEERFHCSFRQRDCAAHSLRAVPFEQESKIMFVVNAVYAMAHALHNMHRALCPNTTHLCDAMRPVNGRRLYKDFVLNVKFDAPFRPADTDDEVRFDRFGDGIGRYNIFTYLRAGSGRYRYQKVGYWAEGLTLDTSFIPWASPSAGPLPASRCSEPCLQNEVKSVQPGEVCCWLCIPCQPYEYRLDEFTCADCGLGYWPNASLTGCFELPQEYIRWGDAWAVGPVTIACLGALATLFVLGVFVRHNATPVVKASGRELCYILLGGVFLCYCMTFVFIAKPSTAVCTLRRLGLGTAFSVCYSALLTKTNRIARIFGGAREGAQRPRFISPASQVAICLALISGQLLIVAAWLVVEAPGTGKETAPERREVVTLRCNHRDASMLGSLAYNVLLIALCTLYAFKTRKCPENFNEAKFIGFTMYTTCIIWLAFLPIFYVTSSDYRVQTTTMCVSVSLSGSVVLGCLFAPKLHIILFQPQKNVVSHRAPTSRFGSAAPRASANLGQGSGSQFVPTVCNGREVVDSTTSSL
Chain of rat mGlu5 (P31424 21-1203): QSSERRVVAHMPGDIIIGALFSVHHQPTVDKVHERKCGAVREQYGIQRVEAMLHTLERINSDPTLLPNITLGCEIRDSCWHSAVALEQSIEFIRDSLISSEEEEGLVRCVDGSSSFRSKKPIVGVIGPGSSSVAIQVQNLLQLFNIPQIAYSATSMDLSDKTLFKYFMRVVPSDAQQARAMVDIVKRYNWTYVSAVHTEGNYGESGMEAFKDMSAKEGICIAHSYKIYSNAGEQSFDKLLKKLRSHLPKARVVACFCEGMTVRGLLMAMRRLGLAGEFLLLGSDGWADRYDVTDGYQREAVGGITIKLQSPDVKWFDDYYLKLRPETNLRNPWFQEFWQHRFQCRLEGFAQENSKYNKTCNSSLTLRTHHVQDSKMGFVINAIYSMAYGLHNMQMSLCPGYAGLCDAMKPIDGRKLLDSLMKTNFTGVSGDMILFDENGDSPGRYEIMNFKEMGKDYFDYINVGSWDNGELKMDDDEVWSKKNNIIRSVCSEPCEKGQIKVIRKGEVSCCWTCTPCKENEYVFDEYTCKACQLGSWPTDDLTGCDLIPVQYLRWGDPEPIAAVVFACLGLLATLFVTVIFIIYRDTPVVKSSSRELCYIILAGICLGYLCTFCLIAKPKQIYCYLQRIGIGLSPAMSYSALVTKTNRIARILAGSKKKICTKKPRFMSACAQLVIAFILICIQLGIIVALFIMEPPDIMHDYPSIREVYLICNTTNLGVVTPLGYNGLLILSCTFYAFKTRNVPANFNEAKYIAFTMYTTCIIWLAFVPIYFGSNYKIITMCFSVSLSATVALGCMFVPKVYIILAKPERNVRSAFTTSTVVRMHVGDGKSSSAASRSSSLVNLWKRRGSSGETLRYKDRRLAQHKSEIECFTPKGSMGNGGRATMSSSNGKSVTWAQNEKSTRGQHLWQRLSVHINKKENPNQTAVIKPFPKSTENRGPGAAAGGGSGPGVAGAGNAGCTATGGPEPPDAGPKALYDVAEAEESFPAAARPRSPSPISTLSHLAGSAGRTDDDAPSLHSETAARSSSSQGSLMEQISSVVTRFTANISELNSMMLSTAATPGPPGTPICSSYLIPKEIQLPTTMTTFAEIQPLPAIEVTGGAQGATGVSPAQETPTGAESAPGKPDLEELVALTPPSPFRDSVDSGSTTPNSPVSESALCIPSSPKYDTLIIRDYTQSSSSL

In the case of `CCCCCCCOC(=O)[C@@]1(F)[C@@H]2C[C@@H](OCc3ccc(Cl)c(Cl)c3)[C@@](N)(C(=O)O)[C@@H]21` [BCI-838], the “duration of inhibition of group II mGlu receptors” value ([1]; once-daily oral dosing, brain concentration of active metabolite BCI-632) is given as 22 h, the “Dutch APP transgene-associated learning and memory impairment” value ([1]; three months of treatment) is given as “reversed” and the anxiolytic effects ([1]; three months of treatment) is given as “anxiolytic effects”. For the same molecule, the “levels of monomeric and oAβ peptides in the hippocampus and cortex” value ([1]; three months of treatment) was “decreased” and the “hippocampal progenitor cell proliferation” value ([1]; wild-type and Alzheimer's diseased mice, 3 months) was “stimulated”.
For `O=c1cc(OCCOc2ncccc2Cl)ccn1-c1ccc(F)cc1` [Compound 54, 4-(2-((3-chloropyridin-2-yl)oxy)ethoxy)-1-(4-fluorophenyl)pyridin-2(1H)-one], the pIC50 [2] was < 4.52, the pEC50 [3] was 5.11 and the activity at 30 µM [3] was 94%. The pIC50 [4] was 6.35 and the remaining activity at 30 µM [4] was 0.96%.
In the case of `O=c1cc(OCCOc2ccc(Cl)cn2)ccn1-c1ccc(F)cc1` [Compound 55, 4-(2-((5-chloropyridin-2-yl)oxy)ethoxy)-1-(4-fluorophenyl)pyridin-2(1H)-one], the pIC50 [2] was < 4.52, the pEC50 [3] was < 5.00 and the activity at 30 µM [3] was 25.2%. It also gave a pIC50 [4] of 6.14 and a remaining activity at 30 µM [4] of 0.32%.
In the case of `N#Cc1ccnc(OCCOc2ccn(-c3ccc(F)cc3)c(=O)c2)c1` [Compound 57, 2-(2-((1-(4-fluorophenyl)-2-oxo-1,2-dihydropyridin-4-yl)oxy)ethoxy)isonicotinonitrile], the pIC50 [2] was < 4.52, the pEC50 [3] was < 5.00 and the activity at 30 µM [3] was 38.7%. It also gave a pIC50 [4] of 6.12 and a remaining activity at 30 µM [4] of -0.4%.
In the case of `N[C@](CC1c2ccccc2Oc2ccccc21)(C(=O)O)[C@H]1C[C@@H]1C(=O)O` [LY341495], the marble-burying behavior [5] is given as “significantly reduce”, the antidepressant-like effects [6] is given as “Antidepressant-like effects” and the “growth rate and volume of tumors” value [7] is given as “reduced”. For the same molecule, the “activity in the tail suspension test” value [8] was “active”, the “antidepressant effect in helpless mice” value ([8]; acute administration) was “potent antidepressant effect” and the immobility time [9] was “dose-dependently reduced”. For the same molecule, the “proliferation rates and proportion of cells in S phase” value [10] was “decreased in a time-dependent manner”, the antidepressant-like effects [11] was “Antidepressant-like effects” and the “amplification of Aβ-induced neurodegeneration by LY566332” value [12] was “prevented”. For the same molecule, the “hypolocomotor effect of mGlu2/3 agonist LY379268” value [13] was “achieved the same result”.
For `N[C@@]1(C(=O)O)CS(=O)(=O)[C@H]2[C@H](C(=O)O)[C@H]21` [LY404039], the “positive and negative symptoms of schizophrenia” value [14] is listed as “statistically significant improvements”.
In the case of `CCS(=O)(=O)N(Cc1cccnc1)c1cccc(-c2ccc(C#N)cc2)c1` [LY566332], the Aβ-induced neurodegeneration [12] is given as “amplified”.
For `N[C@]1(C(=O)O)[C@H]2[C@@H](C[C@H]1OCc1ccc(Cl)c(Cl)c1)[C@]2(F)C(=O)O` [MGS0039], the marble-burying behavior [5] is given as “reduced marble-burying behavior in a significant and dose dependent manner”, the spontaneous locomotor activity [5] is given as “no significant change” and the antidepressant-like effects [6] is given as “Antidepressant-like effects”. The antidepressant effects ([15]; learned helplessness test/paradigm) was “antidepressant effects”, the “number of escape failures” value ([15]; treatment for 7 days) was “significantly reduced” and the antidepressant-like effects [11] was “Antidepressant-like effects”. For the same molecule, the “hyperactivity in the open field test” value [16] was “attenuated”, the “learning deficit in the passive avoidance test” value [16] was “attenuated” and the freezing behavior [17] was “significantly decreased”. The “increased immobility in the FST” value [18] was “reversed”.
For `Cc1cc(-c2cccc(C3=Nc4cc(C)c(C(F)(F)F)cc4NC(=O)C3)c2)cc(C)n1` [RO4491533], the “activity in the tail suspension test” value [8] is given as “active”, the immobility time [9] is given as “dose-dependently reduced” and the “hypolocomotor effect of mGlu2/3 agonist LY379268” value [13] is given as “reversed”.
For `CN1C(=O)CN=C(c2ccccc2)c2cc(Cl)ccc21` [diazepam], the freezing behavior [17] is given as “significantly decreased”.
For `CNCCC(Oc1ccc(C(F)(F)F)cc1)c1ccccc1` (centres unmarked) [fluoxetine], the “antidepressant effect in helpless mice” value ([8]; chronic (21 days) treatment) is given as “full antidepressant effect”.
